Reference: the METLIN SMRT retention time set (Domingo-Almenara et al. 2019)

Assay: gradient 5% acetonitrile 3 min, to 50% in 2 min, to 85% in 15 min, held 3 min, 100 µL/min
Details: column: Zorbax Extend-C18 2.1 x 50 mm; eluents: water / acetonitrile, 0.1% formic acid
Method in brief: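 Standards, all pure, were combined into mixtures of ~100 molecules and run at 100 μL/min on a Zorbax Extend-C18 column (2.1 × 50 mm, 1.8 μm) with water and acetonitrile, each containing 0.1% formic acid. A coupled quadrupole time-of-flight mass spectrometer operated in positive and negative ionization mode. Retention time values come from computationally picked adduct peaks, each inspected manually.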

Row | RP-LC retention time | SMILES
1 | 549 s | O=C(Nc1ccc(N2CCOCC2)cc1)C1(CCO)CCN(c2ncccn2)C1 (stereo unspecified)
2 | 680 s | CCOc1ccc2ncc(S(=O)(=O)c3ccc(Cl)cc3)c(N3CCN(C)CC3)c2c1
3 | 716 s | O=C(c1nnn(-c2ccccc2Cl)c1-c1ccncc1)N1CCCC1
4 | 638 s | CCn1c(N2CCCC(C(=O)NCCN3CCN(c4ccccc4)CC3)C2)cc(=O)n(C)c1=O (stereo unspecified)
5 | 686 s | CC(COc1ccccc1)NC(C)C(O)c1ccc(O)cc1 (stereo unspecified)
6 | 907 s | CCc1ccc(CNC(=O)Cn2c(CC)nc3onc(C)c3c2=O)cc1
7 | 732 s | CCSc1nnc(-c2nn(C)c3c2CN(C(=O)c2ccccc2F)CC3)n1C
8 | 721 s | CCCNC(=O)C1CCCN(c2ccc(SCC(=O)Nc3cc(C)cc(C)c3)nn2)C1 (stereo unspecified)
9 | 837 s | O=C(CN1C(=O)NC(c2ccccc2Cl)C2=C1COC2=O)Nc1ccc(F)c(Cl)c1 (stereo unspecified)
10 | 732 s | Cc1cc(F)ccc1NC(=O)C1CCN(S(=O)(=O)c2cn(C(C)C)cn2)CC1
11 | 706 s | COc1ccc(CN2CC(C(=O)NC3(c4nc(C)no4)CCCCC3)CC2=O)cc1 (stereo unspecified)
12 | 769 s | COc1ccc(C(=O)Nc2cccn3c(C4CCC4)nnc23)cc1F
13 | 924 s | Cc1ccc(S(=O)(=O)CC(=O)Nc2nc(-c3ccc4c(c3)OCO4)cs2)cc1
14 | 1070 s | CCCn1cc(C(=O)Nc2ccc3c(c2)OCCO3)c(=O)c2ccc(C)nc21
15 | 784 s | COc1ccc(S(=O)(=O)N2CCC(c3noc(-c4cnccn4)n3)C2)cc1 (stereo unspecified)
16 | 1100 s | Cc1c(-c2noc(-c3cccc(F)c3)n2)nnn1-c1ccc(F)cc1
17 | 790 s | Cc1cc(C)cc(N2C(=O)CN(C3CCCC3)[C@H]3CS(=O)(=O)C[C@H]32)c1
18 | 782 s | CCNc1ccccc1C(=O)O
19 | 916 s | O=C(Cn1cccc(-c2nc(-c3ccc(Cl)cc3)no2)c1=O)Nc1ccc2c(c1)OCO2
20 | 966 s | c1ccc(-c2nc(-c3cccc(-c4ccn[nH]4)c3)no2)cc1
21 | 564 s | O=C(NCc1ccccn1)c1cccc(N2CCNC(c3ccccc3)C2)n1 (stereo unspecified)
22 | 778 s | Cc1ccccc1S(=O)(=O)N1CCC2(CC1)CC(C)(O)CCO2 (stereo unspecified)

Row | RP-LC retention time | SMILES
23 | 979 s | Cc1noc(C)c1S(=O)(=O)N1CC(c2nc(CCOCc3ccccc3)no2)C1
24 | 784 s | CC1(c2noc(C3CC3)n2)CCN(C(=O)C2CCN(S(=O)(=O)N3CCOCC3)CC2)CC1
25 | 682 s | COc1cccc(-n2c(N3CCC(C(=O)NC4CC4)CC3)nc3ccsc3c2=O)c1
26 | 848 s | COc1cc(NC(=O)C2CCN(S(=O)(=O)c3c(C)nn(-c4ccccc4)c3C)CC2)cc(OC)c1
27 | 688 s | Cc1ccc(Cl)c(NC(=O)c2[nH]c3cc(C)sc3c2CN(C)C)c1
28 | 805 s | CC(C)C(=O)Nc1nc2cc(NC(=O)C3CCN(S(=O)(=O)N4CCCC4)CC3)ccc2s1
29 | 815 s | CCOc1ccc(NC(=O)c2oc3ccc(Br)cc3c2C)c2cccnc12
30 | 930 s | Cc1ccc(-c2csc(NC(=O)Cc3csc(C)n3)n2)cc1
31 | 666 s | COc1cccc(CNC(=O)Cn2cnc3nc(N4CCCC(C(=O)NC5CC5)C4)sc3c2=O)c1 (stereo unspecified)
32 | 876 s | COc1ccc(NS(=O)(=O)c2cn(C(C)C)c3ncccc23)cc1OC
33 | 656 s | CCCNc1cc(N2CCC(CCC(=O)NC(CC)CC)CC2)ncn1
34 | 596 s | Cn1cnc(S(=O)(=O)NCCc2noc(-c3ccncc3)n2)c1
35 | 828 s | COc1ccc(NC(=O)C2CCCN(c3ccc(=O)n(-c4ccc(F)cc4)n3)C2)cc1 (stereo unspecified)
36 | 692 s | O=C(NCCc1cccs1)c1ccc(CN2CC(=O)N3CCCCC3C2=O)cc1 (stereo unspecified)
37 | 804 s | Cc1ccc2c(Nc3ccc(F)c(Cl)c3)c(-c3nc(C)no3)cnc2n1
38 | 1020 s | Cc1cccc(N2CCN(C(=O)Cn3nc(C(=O)N4CCCC4)c4ccccc43)CC2)c1C
39 | 910 s | COc1cc(C(=O)N2CCCC2c2nc(-c3ccccc3)no2)cc(OC)c1OC (stereo unspecified)
40 | 794 s | COc1ccc(S(=O)(=O)N2CC3CN(C(=O)c4cccc(F)c4)CC(C2)O3)cc1
41 | 700 s | CCOC(=O)C(=O)NCC1CCCN1S(=O)(=O)c1ccc(OC)cc1 (stereo unspecified)
42 | 670 s | CCCn1cnc2cc(CNC(=O)Cc3cccc(Cl)c3)ccc21
43 | 796 s | COc1cccc(-c2noc(-c3nn(-c4ccc(F)c(F)c4)ccc3=O)n2)c1OC
44 | 660 s | CCC1CN(C(=O)N2CCC(C(=O)NCCN3CCCCCC3)CC2)c2ccccc2O1 (stereo unspecified)

Row | RP-LC retention time | SMILES
45 | 820 s | COc1ccc(-c2c(C)noc2NC(C)=O)cc1S(=O)(=O)Nc1ccc(Cl)cc1C
46 | 652 s | CCCn1nnc2cc(S(=O)(=O)N3CCCC(C(=O)N4CCN(c5ccccn5)CC4)C3)ccc21 (stereo unspecified)
47 | 784 s | O=C(Nc1cc(F)ccc1F)C1CCN(S(=O)(=O)c2cccnc2)CC1
48 | 1160 s | CCCN1C(=O)COc2ccc(-c3noc(-c4cncc(Br)c4)n3)cc21
49 | 1040 s | CCc1cc(C(=O)Nc2ccc(OC)c(Cl)c2)nc2ccnn12
50 | 699 s | CCCn1c2ccccc2c2cnn(CC(=O)NCCN(C)Cc3ccccc3)c(=O)c21
51 | 764 s | Cn1nc(C(=O)N2CCCCC2)c2c1CCN(C(=O)Nc1ccccc1Br)C2
52 | 864 s | CCC(C(=O)N1CCN(c2cc(C)n3cnnc3n2)CC1)c1ccccc1 (stereo unspecified)
53 | 784 s | CCOC(=O)CNC(=O)C1CCN(c2ncccc2S(=O)(=O)N2CCCCC2)CC1
54 | 591 s | COc1ccc2c(c1)c(CN1CC[C@H](CO)[C@H](N(C)C)C1)cn2C(C)C
55 | 882 s | COc1ccc(OC)c(CC2C(=O)Nc3c(C)cccc32)c1 (stereo unspecified)
56 | 601 s | COc1ccc(-c2noc(Cn3ccnc3)n2)cc1
57 | 861 s | CC1(CNS(=O)(=O)c2ccc(F)c(Cl)c2)CCOCC1
58 | 1170 s | CCc1nc2cc(-c3noc(-c4ccc(OC)c(F)c4)n3)ccc2o1
59 | 1060 s | Cc1[nH]nc(-c2c(C)sc(C)c2S(=O)(=O)Nc2ccc(Cl)cc2)c1C
60 | 606 s | O=C(c1cccc2[nH]ccc12)N1CCCC(c2n[nH]c(C3CC3)n2)C1 (stereo unspecified)
61 | 974 s | Cc1cc(C)c(S(=O)(=O)N2CC(c3nc(-c4ccncc4)no3)C2)cc1C
62 | 886 s | Cc1cccc(CNS(=O)(=O)c2ccc3c(c2)C(=O)N(C)c2ncccc2O3)c1
63 | 953 s | CCOc1ccccc1NC(=O)C1CCN(S(=O)(=O)c2ccc3c(c2)NC(=O)C(CC)O3)CC1 (stereo unspecified)
64 | 562 s | CO[C@H]1C(=O)N(C(C)C)[C@H]1C1CCN(C(=O)Cn2ccnc2)CC1
65 | 962 s | CCC(C)CN(CC(=O)N1CCc2sccc2C1COc1ccc(F)cc1)C(=O)COC (stereo unspecified)
66 | 915 s | Cc1ccc(CNC(=O)N(C)CCc2noc(-c3ccc(F)cc3)n2)cc1
